Test results from PMC8887130 (Genes & Development, 2022).

Legend:
[1] = target: T1, CF II (hClp1-hPcf11) (Homo sapiens, UniProt Q92989); assay: […]'-dATP titration in reconstituted pre-mRNA cleavage, half-maximal activation; type: biochemical
[2] = target: CF II (hClp1-hPcf11) (Homo sapiens, UniProt Q92989, R288A/R293K); assay: biochemical
[3] = target: T1, CF II (hClp1-hPcf11); assay: biochemical
[4] = target: CF II (hClp1-hPcf11) (Homo sapiens, UniProt Q92989, E22A); assay: biochemical
[5] = target: CF II (hClp1-hPcf11) (Homo sapiens, UniProt Q92989, E22Q); assay: biochemical
Chain of CF II (hClp1-hPcf11) (Homo sapiens, UniProt Q92989, E22Q) (Q92989 whole entry E22Q): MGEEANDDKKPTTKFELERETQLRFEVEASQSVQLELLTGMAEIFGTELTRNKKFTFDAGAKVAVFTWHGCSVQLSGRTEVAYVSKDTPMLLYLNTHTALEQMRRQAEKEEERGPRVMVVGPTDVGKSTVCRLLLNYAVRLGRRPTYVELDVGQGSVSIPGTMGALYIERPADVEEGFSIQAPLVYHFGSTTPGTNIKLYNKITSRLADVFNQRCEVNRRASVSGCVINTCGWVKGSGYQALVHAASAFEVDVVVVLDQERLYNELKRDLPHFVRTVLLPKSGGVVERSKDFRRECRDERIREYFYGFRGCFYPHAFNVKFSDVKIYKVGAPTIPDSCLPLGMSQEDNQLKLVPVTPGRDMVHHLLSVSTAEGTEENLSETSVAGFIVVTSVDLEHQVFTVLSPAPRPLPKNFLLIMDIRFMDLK
Chain of CF II (hClp1-hPcf11) (Homo sapiens, UniProt Q92989, E22Q) (O94913 2-1555 partner): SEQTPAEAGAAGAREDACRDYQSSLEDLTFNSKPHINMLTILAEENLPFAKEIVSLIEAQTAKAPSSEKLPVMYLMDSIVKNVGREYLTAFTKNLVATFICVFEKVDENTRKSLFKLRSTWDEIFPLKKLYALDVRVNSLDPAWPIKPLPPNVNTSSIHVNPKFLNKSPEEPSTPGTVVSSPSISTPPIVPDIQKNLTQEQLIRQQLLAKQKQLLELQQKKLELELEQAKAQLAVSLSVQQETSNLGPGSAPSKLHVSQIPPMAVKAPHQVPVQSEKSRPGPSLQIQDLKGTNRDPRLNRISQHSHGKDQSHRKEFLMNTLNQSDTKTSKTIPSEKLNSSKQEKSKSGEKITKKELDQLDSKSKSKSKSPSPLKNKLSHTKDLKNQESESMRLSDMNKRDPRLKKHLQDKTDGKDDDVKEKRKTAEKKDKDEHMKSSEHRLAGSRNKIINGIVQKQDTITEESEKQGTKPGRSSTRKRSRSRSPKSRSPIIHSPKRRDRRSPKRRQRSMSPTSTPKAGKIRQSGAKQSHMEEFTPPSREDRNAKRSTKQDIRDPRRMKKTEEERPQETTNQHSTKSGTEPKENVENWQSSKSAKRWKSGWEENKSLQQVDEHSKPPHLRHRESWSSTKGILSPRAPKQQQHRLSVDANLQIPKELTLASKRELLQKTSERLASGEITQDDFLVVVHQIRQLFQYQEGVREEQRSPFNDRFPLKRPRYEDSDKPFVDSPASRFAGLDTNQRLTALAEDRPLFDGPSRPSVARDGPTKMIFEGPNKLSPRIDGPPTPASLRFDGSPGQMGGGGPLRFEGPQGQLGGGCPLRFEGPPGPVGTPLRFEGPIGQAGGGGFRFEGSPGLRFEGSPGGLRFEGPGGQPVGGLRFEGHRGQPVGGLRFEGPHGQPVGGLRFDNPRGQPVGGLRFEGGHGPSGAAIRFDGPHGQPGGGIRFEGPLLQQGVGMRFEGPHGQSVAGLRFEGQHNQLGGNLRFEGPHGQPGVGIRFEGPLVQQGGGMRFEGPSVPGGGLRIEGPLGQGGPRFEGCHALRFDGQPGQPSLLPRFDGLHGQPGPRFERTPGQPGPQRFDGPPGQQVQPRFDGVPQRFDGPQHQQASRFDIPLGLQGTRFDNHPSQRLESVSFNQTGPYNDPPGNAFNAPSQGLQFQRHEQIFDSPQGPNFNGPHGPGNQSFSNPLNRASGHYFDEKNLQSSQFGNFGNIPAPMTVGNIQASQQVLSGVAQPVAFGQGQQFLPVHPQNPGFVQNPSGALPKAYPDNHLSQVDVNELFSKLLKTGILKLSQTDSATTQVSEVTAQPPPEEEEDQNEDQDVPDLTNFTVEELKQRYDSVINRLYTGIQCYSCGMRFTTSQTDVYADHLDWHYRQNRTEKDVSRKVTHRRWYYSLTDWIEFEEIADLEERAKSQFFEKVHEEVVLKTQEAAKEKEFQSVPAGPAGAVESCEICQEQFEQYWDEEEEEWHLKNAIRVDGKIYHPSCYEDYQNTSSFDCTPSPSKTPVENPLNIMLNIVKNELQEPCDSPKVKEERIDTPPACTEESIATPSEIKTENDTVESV

T1 sequence (Q92989 whole entry): as the sequence (Q92989 whole entry E22Q) above, with Q22E counted along it
T1 sequence (O94913 2-1555 partner): as the sequence (O94913 2-1555 partner) above
Chain of CF II (hClp1-hPcf11) (Homo sapiens, UniProt Q92989, R288A/R293K) (Q92989 whole entry R288A/R293K): as the sequence (Q92989 whole entry E22Q) above, with Q22E, R288A, R293K counted along it
Chain of CF II (hClp1-hPcf11) (Homo sapiens, UniProt Q92989, R288A/R293K) (O94913 2-1555 partner): as the sequence (O94913 2-1555 partner) above
Chain of CF II (hClp1-hPcf11) (Homo sapiens, UniProt Q92989, E22A) (Q92989 whole entry E22A): as the sequence (Q92989 whole entry E22Q) above, with Q22A counted along it
Chain of CF II (hClp1-hPcf11) (Homo sapiens, UniProt Q92989, E22A) (O94913 2-1555 partner): as the sequence (O94913 2-1555 partner) above

Row | Compound | EC50 [1] | EC50 [2] | EC50 [3] | EC50 [4] | EC50 [5]
1 | Nc1ncnc2c1ncn2[C@@H]1O[C@H](COP(=O)(O)OP(=O)(O)OP(=O)(O)O)C[C@H]1O [3'-dATP] | 46.3 ± 7.4 µM |  |  |  | 
2 | Nc1ncnc2c1ncn2[C@@H]1O[C@H](COP(=O)(O)OP(=O)(O)OP(=O)(O)O)[C@@H](O)[C@H]1O [ATP] |  | 5.7 ± 3.4 µM | 0.5 ± 0.1 µM | 10.9 ± 2.7 µM | 95.9 ± 19.8 µM
